Results from patent US8178135B2, “Aqueous solution of conophylline and/or conophyllidine” (Keio University, priority 2006, dated 2012).
Read-outs that look alike come from different tables or passages of the source.

Assays:
[1] = Concentration dissolved after neutralization with pectin added (partially purified by fractionation); format: physicochemical; settings: for concentration in solution: Control: filled up only with distilled water, not neutralized
Experimental: 10 mg of the dried product obtained in Example 5 was dissolved in 5 ml of 0.1 N hydrochloric acid. This solution was dispensed in 0.5 ml aliquots into test tubes. Then, 10 μl or 100 μl of a 0.25% aqueous solution of pectin (Genue pectin type YM-150-LJ) was added and filled up to a total volume of 2 ml with distilled water. Meanwhile, only distilled water was added to some of the test tubes in a total volume of 2 ml.
Subsequently, the solution, after being adjusted to pH 6.0 with sodium carbonate aqueous solution, was filled up to a total volume of 2.5 ml and was centrifuged at 5,000×g for 10 min. The supernatant was recovered and the concentrations of conophylline and conophyllidine were measured. Meanwhile, the concentrations of conophylline and conophyllidine in the solutions, which was made by filled up to a total volume of 2.5 ml only with distilled water, were also measured as the control.

[2] = Blood concentrations after oral administration of Crude extract I to rats; format: in vivo, rat
Experimental: One drop of Tween 80 was added to the crude extract (0.05 g) obtained in Example 1, which was suspended in 5-ml of water for injection. This suspension was administered to 5-week old rats (Crj:CD(SD) IGS, SPF, male) using a sonde by forced oral administration at a dose of 5 ml/kg body weight (n=2). Blood was taken from the orbital venous plexus of each rat at 0.5, 1, 2, 4, 8, 24 hours post administration and serum was recovered by centrifugation. Then, the concentrations of conophylline and conophyllidine in the blood were measured (Table 7) by the same method as in Example 8. As the control, water for injection containing one drop of Tween80 was administered orally at a dose of 5 ml/kg body weight (n=2) and the blood concentrations were measured in the same manner.

[3] = Dissolution of dried ethanol extract in citric acid / citrate buffer at pH 2.6 to 6.0 (HPLC); format: physicochemical
Experimental: Conophylline and conophyllidine were analyzed by reversed phase HPLC in a high pressure gradient mode using a YMC-Pack Pro C18 RS column (4.6 mm×250 mm; manufactured by YMC Co., Ltd.). The mobile phase consisted of 1% by volume acetic acid as solvent A and acetonitrile as solvent B. The gradient program was set to start with 10% B at a flow rate of 1 ml/min, and the portion of B was increased linearly to 55% over 25 min. The column temperature was 40° C. and UV absorption was monitored at the wavelength of 335 nm. The reference solutions of conophylline and conophyllidine were prepared immediately before measurement and their concentrations were calculated from the absorbance at 335 nm of the solutions prepared.
After some of the dried leaves obtained in Example 1 were pulverized in a mill, 10 g of the pulverized product was extracted with 100 ml of 60% ethanol. Then, the extract was centrifuged and supernatant containing conophylline and conophyllidine was recovered. […] The supernatant was dispensed in 3 ml aliquots into 5 centrifuge tubes and then concentrated to dryness by centrifugation. A buffer (citric acid aqueous solution or sodium citrate buffer) at pH 2.6 to pH 6.0 prepared by appropriately mixing 0.1 M citric acid solution and 0.1 M sodium citrate solution was added at 0.1 ml per tube. After 10 min vigorous stirring, the supernatant was centrifugated again and diluted 10-fold with 50% ethanol. After the dilution, insoluble matter was removed by filtration with a 0.2-μm membrane filter and the contents of conophylline and conophyllidine in the filtrated supernatant were measured by HPLC (Table 2).

[4] = Concentration dissolved after neutralization with pectin or sodium polyacrylate (ethanol crude extract); format: physicochemical; settings: for concentration in solution: Control: filled up only with distilled water, not neutralized
Experimental: Crude extract (250 mg) obtained in Example 1 was dissolved in 5 ml of 0.1 N hydrochloric acid. Then, after insoluble matter was removed by centrifugation (1,500×g, 5 min), the solution was dispensed in 0.5 ml aliquots into test tubes. Then, 10 μl or 100 μl of a 0.2% aqueous solution of pectin (Genue pectin type YM-150-LJ) or 0.2% aqueous solution of sodium polyacrylate (degrees of polymerization=30,000 to 40,000, manufactured by Wako Pure Chemical Industries, Ltd.) was added and filled up to a total volume of 2 ml with distilled water. Meanwhile, only distilled water was added to some of the test tubes in a total volume of […] (without an additive).
Subsequently, the solution, after being adjusted to pH 6.0 with sodium carbonate aqueous solution, was filled up to a total volume of 2 ml and was centrifuged at 5,000×g for 10 min. The supernatant was recovered and the concentrations of conophylline and conophyllidine were measured. Meanwhile, the concentrations of conophylline and conophyllidine in the solutions, which was made by filled up to a total volume of 2.5 ml only with distilled water, were also measured as the control.

[5] = tested on: pancreatic β cells; settings: cited from earlier work
[6] = pH 6.0, Sodium polyacrylate 10 μg/ml
[7] = pH 6.0, Sodium polyacrylate 100 μg/ml
[8] = male, Crj:CD(SD) IGS, rat, in vivo, po, blood concentration

SMILES	concentration in solution [1] [µg/mL]	concentration in supernatant after neutralization ([1]; pH 6.0, Pectin 10 μg/ml) [µg/mL]	concentration in supernatant after neutralization ([1]; pH 6.0, Pectin 100 μg/ml) [µg/mL]	concentration in supernatant after neutralization ([1]; pH 6.0, pectin 0 μg/ml) [µg/mL]	content dissolved in supernatant ([3]; Citrate buffer solution, pH 3) [mg/mL]	content dissolved in supernatant ([3]; Citrate buffer solution, pH 4) [mg/mL]	content dissolved in supernatant ([3]; Citrate buffer solution, pH 5) [mg/mL]	content dissolved in supernatant ([3]; Citrate buffer solution, pH 6) [mg/mL]	content dissolved in supernatant ([3]; Citric acid, pH 2.6) [mg/mL]	concentration in solution [4] [µg/mL]	concentration in supernatant after neutralization ([4]; pH 6.0, Pectin 10 μg/ml) [µg/mL]	concentration in supernatant after neutralization ([4]; pH 6.0, Pectin 100 μg/ml) [µg/mL]	concentration in supernatant after neutralization [4, 6] [µg/mL]	concentration in supernatant after neutralization [4, 7] [µg/mL]	concentration in supernatant after neutralization ([4]; pH 6.0, additive None) [µg/mL]	regeneration of pancreatic β cells [5]	also measured
CC[C@@]12C=CCN3CC[C@]4(C(=C(C(=O)OC)C1)Nc1cc5c(cc14)[C@H]1[C@@H](O5)[C@H](O)[C@]4(CC)CC(C(=O)OC)=C5Nc6c(cc(O)c(OC)c6OC)[C@@]56CCN1[C@H]46)[C@H]32 (stereo in doubt) [Conophyllidine, conophyllidine]	4.6	2.2	3.0	1.5	0.612	0.055	0.0017	0.0010	0.786	11.83	2.42	5.19	2.50	8.45	3.27	activate regeneration of pancreatic β cells	blood concentration ([2]; Crude extract I oral, rats (animals 3, 4), 0.5 h): 0.065 µg/mL; blood concentration ([2]; Crude extract I oral, rats (animals 3, 4), 1 h): 0.062 µg/mL; blood concentration ([2]; Crude extract I oral, rats (animals 3, 4), 2 h): 0.032 µg/mL; blood concentration ([2]; Crude extract I oral, rats (animals 3, 4), 4 h): 0.025 µg/mL; blood concentration ([2]; Crude extract I oral, rats (animals 3, 4), 8 h): 0.013 µg/mL; blood concentration ([2]; Crude extract I oral, rats (animals 3, 4), 24 h): 0.009 µg/mL; concentration at 0.5 h ([2]; male, Crj:CD(SD) IGS, rat, in vivo, po, 0.05 g/kg, Crude extract I oral, rats (animals 3, 4), 0.5 h, read-out: blood concentration): 54 ng/mL; concentration at 1 h ([2]; male, Crj:CD(SD) IGS, rat, in vivo, po, 0.05 g/kg, Crude extract I oral, rats (animals 3, 4), 1 h, read-out: blood concentration): 61 ng/mL; concentration at 2 h ([2]; male, Crj:CD(SD) IGS, rat, in vivo, po, 0.05 g/kg, Crude extract I oral, rats (animals 3, 4), 2 h): 40 ng/mL; concentration at 4 h ([2]; male, Crj:CD(SD) IGS, rat, in vivo, po, 0.05 g/kg, Crude extract I oral, rats (animals 3, 4), 4 h): 36 ng/mL; concentration at 8 h ([2]; male, Crj:CD(SD) IGS, rat, in vivo, po, 0.05 g/kg, Crude extract I oral, rats (animals 3, 4), 8 h): 24 ng/mL; concentration at 24 h ([2]; male, Crj:CD(SD) IGS, rat, in vivo, po, 0.05 g/kg, Crude extract I oral, rats (animals 3, 4), 24 h, read-out: blood concentration): 13 ng/mL
CC[C@@]12CC(C(=O)OC)=C3Nc4cc5c(cc4[C@@]34CCN(C[C@H]3O[C@H]31)[C@@H]24)[C@@H]1[C@H](O5)[C@@H](O)[C@@]2(CC)CC(C(=O)OC)=C3Nc4c(cc(O)c(OC)c4OC)[C@@]34CCN1[C@@H]24 [Conophylline, conophylline]	3.7	2.1	2.6	1.5	0.866	0.093	0.0018	0.0009	1.072	8.42	1.74	3.83	1.87	4.85	2.52	activate regeneration of pancreatic β cells	blood concentration ([2]; male, Crj:CD(SD) IGS, rat, in vivo, po, 0.5 h): 0.398 µg/mL; blood concentration ([2]; male, Crj:CD(SD) IGS, rat, in vivo, po, 1 h): 0.472 µg/mL; blood concentration ([2]; male, Crj:CD(SD) IGS, rat, in vivo, po, 24 h): 0.108 µg/mL; concentration at 0.5 h [2, 8]: 332 ng/mL; concentration at 1 h [2, 8]: 270 ng/mL; concentration at 24 h [2, 8]: 90 ng/mL
